Results as given in ChEMBL document CHEMBL3792365, “Dioxol and dihydrodioxin analogs of 2- and 3-phenylacetonitriles as potent anti-cancer agents with nanomolar activity against a variety of human cancer cells” (2016).

Legend:
Format in all cases: functional
NCI-H23 = assay: Growth inhibition of human NCI-H23 cells at 10 uM after 48 hrs by sulforhodamine B assay; details: NCI-H23, 48 h, values are per cent of control
NCI-H522 = assay: Growth inhibition of human NCI-H522 cells at 10 uM after 48 hrs by sulforhodamine B assay; details: NCI-H522, 48 h, values are per cent of control
[1] = Growth inhibition of human HCT116 cells at 10 uM after 48 hrs by sulforhodamine B assay; details: HCT-116, 48 h, values are per cent of control
[2] = Growth inhibition of human SW620 cells at 10 uM after 48 hrs by sulforhodamine B assay; details: SW-620, 48 h, values are per cent of control
[3] = Growth inhibition of human UACC62 cells at 10 uM after 48 hrs by sulforhodamine B assay; details: UACC-62, 48 h, values are per cent of control
[4] = Growth inhibition of human SF539 cells at 10 uM after 48 hrs by sulforhodamine B assay; details: SF-539, 48 h, values are per cent of control
SN12C = assay: Growth inhibition of human SN12C cells at 10 uM after 48 hrs by sulforhodamine B assay; details: values are per cent of control
SK-MEL-28 = assay: Growth inhibition of human SK-MEL-28 cells at 10 uM after 48 hrs by sulforhodamine B assay; details: SK-MEL-28, 48 h, values are per cent of control
[5] = Growth inhibition of human Caki1 cells at 10 uM after 48 hrs by sulforhodamine B assay; details: CAKI-1, 48 h, values are per cent of control
[6] = Growth inhibition of human TK10 cells at 10 uM after 48 hrs by sulforhodamine B assay; details: TK-10, 48 h, values are per cent of control
[7] = Growth inhibition of human DU145 cells at 10 uM after 48 hrs by sulforhodamine B assay; details: DU-145, 48 h, values are per cent of control
[8] = Growth inhibition of human SNB19 cells at 10 uM after 48 hrs by sulforhodamine B assay; details: SNB-19, 48 h, values are per cent of control
[9] = Growth inhibition of human HCC2998 cells at 10 uM after 48 hrs by sulforhodamine B assay; details: HCC 2998, 48 h, values are per cent of control
T47D = assay: Growth inhibition of human T47D cells at 10 uM after 48 hrs by sulforhodamine B assay; details: values are per cent of control
MDA-MB-435 = assay: Growth inhibition of human MDA-MB-435 cells at 10 uM after 48 hrs by sulforhodamine B assay; details: MDA-MB-435, 48 h, values are per cent of control
NCI-H460 = assay: Growth inhibition of human NCI-H460 cells at 10 uM after 48 hrs by sulforhodamine B assay; details: NCI-H460, 48 h, values are per cent of control
HT-29 = assay: Growth inhibition of human HT-29 cells at 10 uM after 48 hrs by sulforhodamine B assay; details: HT-29, 48 h, values are per cent of control
SK-MEL-2 = assay: Growth inhibition of human SK-MEL-2 cells at 10 uM after 48 hrs by sulforhodamine B assay; details: SK-MEL-2, 48 h, values are per cent of control
K562 = assay: Growth inhibition of human K562 cells at 10 uM after 48 hrs by sulforhodamine B assay; details: K562, 48 h, values are per cent of control
[10] = Growth inhibition of human Hs 578T cells at 10 uM after 48 hrs by sulforhodamine B assay; details: values are per cent of control
[11] = Growth inhibition of human IGROV1 cells at 10 uM after 48 hrs by sulforhodamine B assay; details: IGROV-1, 48 h, values are per cent of control
A549 = assay: Growth inhibition of human A549/ATCC cells at 10 uM after 48 hrs by sulforhodamine B assay; details: A549, 48 h, values are per cent of control
[12] = Growth inhibition of human OVCAR4 cells at 10 uM after 48 hrs by sulforhodamine B assay; details: OVCAR-4, 48 h, values are per cent of control
[13] = Growth inhibition of human SF268 cells at 10 uM after 48 hrs by sulforhodamine B assay; details: SF-268, 48 h, values are per cent of control
NCI-H322M = assay: Growth inhibition of human NCI-H322M cells at 10 uM after 48 hrs by sulforhodamine B assay; details: values are per cent of control
M14 = assay: Growth inhibition of human M14 cells at 10 uM after 48 hrs by sulforhodamine B assay; details: M14, 48 h, values are per cent of control
[14] = Growth inhibition of human LOXIMVI cells at 10 uM after 48 hrs by sulforhodamine B assay; details: LOX IMVI, values are per cent of control
U-251 = assay: Growth inhibition of human U251 cells at 10 uM after 48 hrs by sulforhodamine B assay; details: U-251, 48 h, values are per cent of control
NCI-H226 = assay: Growth inhibition of human NCI-H226 cells at 10 uM after 48 hrs by sulforhodamine B assay; details: NCI-H226, 48 h, values are per cent of control
[15] = Growth inhibition of human UO31 cells at 10 uM after 48 hrs by sulforhodamine B assay; details: UO-31, 48 h, values are per cent of control
A498 = assay: Growth inhibition of human A498 cells at 10 uM after 48 hrs by sulforhodamine B assay; details: A498, 48 h, values are per cent of control
[16] = Growth inhibition of human SF295 cells at 10 uM after 48 hrs by sulforhodamine B assay; details: SF-295, 48 h, values are per cent of control
MDA-MB-231 = assay: Growth inhibition of human MDA-MB-231 cells at 10 uM after 48 hrs by sulforhodamine B assay; details: MDA-MB-231, 48 h, values are per cent of control
[17] = Growth inhibition of human COLO205 cells at 10 uM after 48 hrs by sulforhodamine B assay; details: COLO 205, 48 h, values are per cent of control
[18] = Growth inhibition of human BT549 cells at 10 uM after 48 hrs by sulforhodamine B assay; details: BT-549, 48 h, values are per cent of control
MDA-MB-468 = assay: Growth inhibition of human MDA-MB-468 cells at 10 uM after 48 hrs by sulforhodamine B assay; details: MDA-MB-468, 48 h, values are per cent of control
[19] = Growth inhibition of human SNB75 cells at 10 uM after 48 hrs by sulforhodamine B assay; details: SNB-75, 48 h, values are per cent of control
[20] = Growth inhibition of human HOP62 cells at 10 uM after 48 hrs by sulforhodamine B assay; details: HOP-62, 48 h, values are per cent of control
KM12 = assay: Growth inhibition of human KM12 cells at 10 uM after 48 hrs by sulforhodamine B assay; details: KM12, 48 h, values are per cent of control
[21] = Growth inhibition of human OVCAR5 cells at 10 uM after 48 hrs by sulforhodamine B assay; details: OVCAR-5, 48 h, values are per cent of control

SMILES	growth, % of control at 10 µM (NCI-H23)	growth, % of control at 10 µM (NCI-H522)	growth, % of control at 10 µM [1]	growth, % of control at 10 µM [2]	growth, % of control at 10 µM [3]	growth, % of control at 10 µM [4]	growth, % of control at 10 µM (SN12C)	growth, % of control at 10 µM (SK-MEL-28)	growth, % of control at 10 µM [5]	growth, % of control at 10 µM [6]	growth, % of control at 10 µM [7]	growth, % of control at 10 µM [8]	growth, % of control at 10 µM [9]	growth, % of control at 10 µM (T47D)	growth, % of control at 10 µM (MDA-MB-435)	growth, % of control at 10 µM (NCI-H460)	growth, % of control at 10 µM (HT-29)	growth, % of control at 10 µM (SK-MEL-2)	growth, % of control at 10 µM (K562)	growth, % of control at 10 µM [10]	other results
COc1ccc(/C=C(\C#N)c2ccc3c(c2)OCO3)cc1OC	97.1%	94.5%	105%	107%	114%	103%	103%	116%	102%	96.5%	104%	105%	106%	88.7%	96.1%	106%	106%	102%	94.8%	114%	growth, % of control at 10 µM [11]: 96.9%; growth, % of control at 10 µM (A549): 96.6%; growth, % of control at 10 µM [12]: 110%; growth, % of control at 10 µM [13]: 99.5%; growth, % of control at 10 µM (NCI-H322M): 96.8%; growth, % of control at 10 µM (M14): 106%; growth, % of control at 10 µM [14]: 101%; growth, % of control at 10 µM (U-251): 102%; growth, % of control at 10 µM (NCI-H226): 114%; growth, % of control at 10 µM [15]: 88%; growth, % of control at 10 µM (A498): 96.5%; growth, % of control at 10 µM [16]: 105%; growth, % of control at 10 µM (MDA-MB-231): 106%; growth, % of control at 10 µM [17]: 106%; growth, % of control at 10 µM [18]: 91.8%; growth, % of control at 10 µM (MDA-MB-468): 104%; growth, % of control at 10 µM [19]: 87.5%; growth, % of control at 10 µM [20]: 97.6%; growth, % of control at 10 µM (KM12): 96.2%; growth, % of control at 10 µM [21]: 104%
COc1cc(/C=C(\C#N)c2ccc3c(c2)OCO3)cc(OC)c1OC	94.5%	85.8%	99.4%	98.9%	87.6%	92.4%	95.4%	97.6%	86.6%	98.1%	107%	93.8%	91.3%	70.7%	74.7%	107%	88.8%	90.2%	80.4%	100%	growth, % of control at 10 µM [11]: 95.3%; growth, % of control at 10 µM (A549): 93.6%; growth, % of control at 10 µM [12]: 89.2%; growth, % of control at 10 µM [13]: 94.4%; growth, % of control at 10 µM (NCI-H322M): 104%; growth, % of control at 10 µM (M14): 95%; growth, % of control at 10 µM [14]: 109%; growth, % of control at 10 µM (U-251): 96.6%; growth, % of control at 10 µM (NCI-H226): 101%; growth, % of control at 10 µM [15]: 67.1%; growth, % of control at 10 µM (A498): 81.8%; growth, % of control at 10 µM [16]: 96.1%; growth, % of control at 10 µM (MDA-MB-231): 88.2%; growth, % of control at 10 µM [17]: 104%; growth, % of control at 10 µM [18]: 82.1%; growth, % of control at 10 µM (MDA-MB-468): 99.6%; growth, % of control at 10 µM [19]: 114%; growth, % of control at 10 µM [20]: 92.2%; growth, % of control at 10 µM (KM12): 93.8%; growth, % of control at 10 µM [21]: 99.7%
N#C/C(=C\c1ccc2ccccc2n1)c1ccc2c(c1)OCO2	58.8%	58.8%	20.5%	89.9%	86.8%	69.6%	73%	88.6%	76%	45%	81.3%	34.7%	95.1%	69.4%	48.3%	24.7%	71.9%	87.1%	70.3%	34.8%	growth, % of control at 10 µM [11]: 55.1%; growth, % of control at 10 µM (A549): 56.8%; growth, % of control at 10 µM [12]: 45%; growth, % of control at 10 µM [13]: 62.5%; growth, % of control at 10 µM (NCI-H322M): 66.6%; growth, % of control at 10 µM (M14): 90.3%; growth, % of control at 10 µM [14]: 59.5%; growth, % of control at 10 µM (U-251): 26.7%; growth, % of control at 10 µM (NCI-H226): 70.8%; growth, % of control at 10 µM [15]: 72.8%; growth, % of control at 10 µM (A498): 54.1%; growth, % of control at 10 µM [16]: 64%; growth, % of control at 10 µM (MDA-MB-231): 50.2%; growth, % of control at 10 µM [17]: 104%; growth, % of control at 10 µM [18]: 86.1%; growth, % of control at 10 µM (MDA-MB-468): 77.8%; growth, % of control at 10 µM [19]: 5.4%; growth, % of control at 10 µM [20]: 69.7%; growth, % of control at 10 µM (KM12): 86.8%; growth, % of control at 10 µM [21]: 81.1%
COc1ccc(/C=C(\C#N)c2ccc3c(c2)OCO3)c(Cl)c1OC	85%	66%	71.4%	62.3%	56.6%	91.8%	83.5%	91%	79.3%	87.6%	104%	89.6%	76.9%	65.1%	15.3%	92.6%	70.3%	80.1%	39.2%	81.9%	growth, % of control at 10 µM [11]: 77.1%; growth, % of control at 10 µM (A549): 84.7%; growth, % of control at 10 µM [12]: 98.6%; growth, % of control at 10 µM [13]: 98.2%; growth, % of control at 10 µM (NCI-H322M): 97.8%; growth, % of control at 10 µM (M14): 72.4%; growth, % of control at 10 µM [14]: 77.3%; growth, % of control at 10 µM (U-251): 95.5%; growth, % of control at 10 µM (NCI-H226): 85%; growth, % of control at 10 µM [15]: 74.9%; growth, % of control at 10 µM (A498): 72.5%; growth, % of control at 10 µM [16]: 91.1%; growth, % of control at 10 µM (MDA-MB-231): 82.3%; growth, % of control at 10 µM [17]: 85%; growth, % of control at 10 µM [18]: 64.1%; growth, % of control at 10 µM (MDA-MB-468): 48.8%; growth, % of control at 10 µM [19]: 73.5%; growth, % of control at 10 µM [20]: 87.2%; growth, % of control at 10 µM (KM12): 69.2%; growth, % of control at 10 µM [21]: 92.8%
